Measured values published in patent US20080260720A1, “Systems and Methods for Inhibiting Metastasis” (priority 2004, published 2008).

Key:
Type in all cases: cell-based
[1] = system: MB-MDA-435 breast cancer cells expressing E-cadherin; experiment: Wound-filling (cell migration) assay, G12-stimulated cell escape; conditions: MB-MDA-435 cells with E-cadherin and mutationally-activated Gα12; free-migrating cells 39 h after wounding
Experimental: To determine whether G12 proteins could influence cadherin-mediated suppression of cell migration, wound-filling assays using MB-MDA-435 breast cancer cells expressing E-cadherin were conducted. This system is believed to mimic the escape of potentially metastatic cells from the primary tumor. When a monolayer of cells was wounded by scraping, MB-MDA-435 cells lacking E-cadherin (435-puro) frequently broke free from the advancing “wall” of cells and migrated into the wound area as lone or “free migrating” cells.
Wound-filling assays were performed using MB-MDA-435 cells harboring E-cadherin (435-E-cad) or a control plasmid (435-puro), that were infected 40 h earlier with recombinant adenoviruses expressing either mutationally-activated Gα12 (12^QL) or mutationally-activated Gαi2 (control). Cells were visualized by fluorescence microscopy for GFP expression (indicative of successful adenovirus infection). Cells were photographed at time of initial wounding, performed by scraping cell monolayers with a pipette tip and marling the wounded areas for orientation. Marked areas were re-photographed 39 h after wounding (lower panels). […] Data from 5 randomly selected view fields are presented as mean ±S.E. for each condition. E-cadherin lacking the G12-interacting region fails to suppress cell migration. […]

[2] = system: MCF-7 cell line; experiment: Matrigel invasion assay, MCF-7; conditions: 50 nM thrombin, 24 hrs, MCF-7 cells, Cyquant quantification
Experimental: (§1) To examine the role of G12/13 in breast cancer invasion, the Matrigel (BD biosciences) invasion assay was used. In this assay, transwell migration chambers are coated with Matrigel, an artificial extracellular matrix believed to closely resemble basal lamina in structure and content. Cells are then plated on top of this matrix and allowed to invade the matrigel and migrate to the underside of the membrane. The cells that reach the underside of the membrane are then quantified as a measure of invasiveness. This system serves as a model for primary tumor invasion, as the matrix mimics the microenvironment through which the cancer cells must pass in order to metastasize.
(§2) MB-MDA-231 and MCF-7 cells were plated on top of a Matrigel (BD Biosciences) coated polycarbonate filter (8.0 μM pore). The filter was transferred to a chamber containing 0.1% BSA-DMEM and the cells were allowed to adhere for 1 hr. The cells were then stimulated with 50 nM thrombin. After 24 hrs, the cells were detached from the underside of the filter and quantified using the Cyquant (Molecular Probes) cell enmieration kit. […] Using retrovirus, stable MB-MDA-231 cell lines expressing p115RGS, RGS2 (see text) or the appropriate vector control were generated. Invasion assays were then preformed as in (a) using these cells.

[3] = system: MB-MDA-231 cell line; experiment: Matrigel invasion assay, MB-MDA-231; conditions: 50 nM thrombin, 24 hrs, MB-MDA-231 cells, Cyquant quantification
Experimental: as §1, §2

| Molecule | effect on the G12-stimulated cell escape [1] | invasion through Matrigel [2] | invasion through Matrigel [3] |
| --- | --- | --- | --- |
| C[C@@H](N)[C@H]1CC[C@H](C(=O)Nc2ccncc2)CC1 [Y27632] | no effect | – | – |
| thrombin | – | not | stimulates invasion |
